Assay results: patent US11014915B2, “Selective estrogen receptor degrader” (SUN PHARMA ADVANCED RESEARCH COMPANY LIMITED, priority 2019, dated 2021)

Tests used:
[1] = system: MCF-7 cells harboring ER wild type (Wt); assay: MCF-7 cell growth inhibition assay, wild type; type: cell-based, human; details: for IC50: Homo sapiens, MCF7, 168 h, MCF-7 Wt, seven-day incubation
Protocol: (§1) MCF-7 Cell Growth Inhibition Assay:
(§2) The anti-proliferative activity of the test compounds were evaluated in a growth inhibition assay. Briefly, MCF-7 cells harboring ER wild type (Wt), and MCF-7 cells harboring mutant ER (WT/D538G and WT/Y537S) were seeded at a density of 1000 cells/well in 96-well plate in phenol red free RPMI1640 medium supplemented with 10% charcoal stripped fetal bovine serum. The cells were incubated overnight at 37° C. and 5% CO2 followed by the addition of varying concentrations of the test compounds in DMSO. Final concentration of DMSO in the well was 0.5%. Following a seven-day incubation of cells with the test compounds, cell viability was assessed using a Prestoblue™ reagent. The percent inhibition of cell proliferation was calculated by normalizing the cell viability using a vehicle control as 0% inhibition of proliferation.

[2] = system: MCF-7 cells harboring mutant ER (WT/Y537S); assay: MCF-7 cell growth inhibition assay, Y537S; type: cell-based; details: Homo sapiens, MCF7, 168 h; MCF-7 Y537S, seven-day incubation
Protocol: as §1, §2

[3] = system: MCF-7 cells harboring mutant ER (WT/D538G); assay: MCF-7 cell growth inhibition assay, D538G; type: cell-based; details: Homo sapiens, MCF7, 168 h; MCF-7 D538G, seven-day incubation
Protocol: as §1, §2

[4] = Pharmacokinetic study in female SD rats, single oral dose; type: in vivo; details: rat, 50 mg/kg p.o.; for AUC(0-t) / Cmax / Tmax / half-life / AUC(0-inf): female, SD, plasma, po; for AUC(0-inf): read-out: AUCinf_obs
Source text: In drug discovery it is very important to have good oral bioavailability and pharmacokinetic (PK) profile of the compound in order to become a good drug candidate for oral administration. Many compounds having potent in vitro efficacy fail to show therapeutic efficacy in human body. The lack of therapeutic efficacy of these compounds is mainly due to their inappropriate pharmacokinetic properties, such as low bioavailability, short half-life, rapid metabolism, or rapid clearance resulting in a short duration of action. Therefore a good drug candidate should have not only good potency, but also a good pharmacokinetic profile. The pharmacokinetic profile of the compounds of Formula Ia and Ib were determined as per the procedure provided below.
PK profiles were evaluated in female SD rats (n=2) following a single oral dose administration. Rats were fasted for 12-13 hours prior to dosing and feed was provided 2 hours after oral treatments. Dose formulations of compounds were prepared in Tween 80 (0.4% v/v of the total volume of suspension) in 0.5% carboxymethyl cellulose (CMC). Treatments were given at 50 mg/kg, p.o. To evaluate the plasma concentration, 0.2 mL blood was drawn from the rats through the retro-orbital plexus at 0.25, 1, 4, 8, 24, 48 and 72 hour time points post-treatment in Eppendorf tubes containing sodium heparin as an anticoagulant (100 IU/mL), and centrifuged immediately at 8500 rpm for 7 min at 4° C. Plasma was separated and stored at −70° C., until analysis. The analysis of samples was performed as per the method given below:
Working Calibration Standard and Quality Control Standards Preparation:
Working calibration standards were prepared having 0.10, 0.20, 2.00, 4.00, 8.00, 12.00, 16.00, and 20.00 μg/mL concentrations. Quality control standards were prepared at concentrations of […].
Preparation of Working Internal Standards (WIS):
Accurately weighed 5 mg of Carbamazepine was transferred into a 100 mL volumetric flask, dissolved and diluted up to the mark with diluent (0.1% formic acid in water:acetonitrile 30:70 v/v). A WIS of 5 μg/mL was prepared from the above solution.
5 μL of working standards and quality controls were spiked into 95 μL of blank plasma. 25 μl from the above spiked standards and quality controls were aliquoted into microcentrifuge tubes. 25 μL of study samples were also aliquoted into a micro centrifuge tube. 5 μL of WIS was added in zero standards to linearity and study samples except blank. The samples were further vortexed for 10-15 seconds. 150 μL of Milli Q water was added to all prepared samples and vortexed for 10-15 seconds. Samples were loaded on a preconditioned cartridge (preconditioning was done with 1 mL methanol followed by 1 mL Milli Q water). Cartridges were washed with 2×1 mL of Milli Q water. Elution was done with a 1 mL elution solution {acetonitrile: 0.1% formic acid solution (70:30)} in HPLC vials.
Chromatographic separation was achieved on Chiral pack ID (250*4.6 mm, 5μ) with a flow rate of 1.25 mL/min with splitter and injection volume of 20 μL. The sample cooler was maintained at 10° C. The column oven temperature was set to 30° C. The mobile phase consisted of:
Mobile phase A: 1.47 g of ammonium bicarbonate into 1 L of water, 1 ml DEA, pH 9.2±0.1
Mobile phase B: methanol,
wherein mobile phase A was mixed with mobile phase B in the ratio of 30:70 v/v, respectively. The retention time of the compound of Formula Ia, compound of Formula Ib and the internal standard were about 8.7, 7.6 and 4.2 min, respectively. The overall chromatographic run time was 16 minutes.
Detection was performed by tandem mass spectrometry (TSQ Quantum, Discovery MAX, Thermo Electron Corporation) and peak areas were integrated using LCquan software version 2.9 QF1. […]

[5] = system: subcutaneous MCF7-Y537S xenografts; assay: In-vivo efficacy in MCF7-Y537S mice xenografts; set-up: species or system female athymic nude mice
Protocol: In-Vivo Efficacy of Compound of Formula I and Compound of Formula Ia: […]
The efficacy of the compound of Formula I and the compound of Formula Ia were evaluated in female athymic nude mice harboring subcutaneous MCF7-Y537S xenografts. Dose formulations of the compound of Formula I and the compound of Formula Ia were prepared in Tween 80 (0.4% v/v of the total volume of suspension) in 0.5% w/v carboxymethylcellulose (CMC) and administered once daily orally for 28 days. Two perpendicular diameters of tumor were measured with digital Vernier caliper. Tumor volume (V) was calculated using the following equation: V=(a^2×b)/2, where “a” is the width of the tumor (small diameter), and “b” the length (large diameter), both in millimeters. Tumors were monitored twice weekly and compared with a vehicle treated group.

IC50 [1] | IC50 [2] | IC50 [3] | AUC(0-t) [4] | Cmax [4] | Tmax [4] | half-life [4] | AUC(0-inf) [4] | AUClast of Formula Ia relative to Formula Ib [4] | Cmax of Formula Ia relative to Formula Ib [4] | Compound | Potency of Formula Ia relative to Formula Ib in MCF-7 growth inhibition assay ([1]; wild type) | % Tumor growth inhibition compared to vehicle group after 28 days ([5]; 50 mg/kg, p.o., 28 days, once daily) | Tumor growth compared to the vehicle group (in words) ([5]; once daily orally for 28 days)
69.9 nM | 1000 nM | 345 nM | 1800 ng·h/mL | 119 ng/mL | 4 h | 10 h | 2360 ng·h/mL | – | – | CC1=C(c2cc(F)cc(F)c2)[C@@H](c2ccc(/C=C/CN3CC(CF)C3)cc2)Oc2cc(O)ccc21 [Formula Ib, (2R)-3-(3,5-difluorophenyl)-2-[4-[(E)-3-[3-(fluoromethyl)azetidin-1-yl]prop-1-enyl]phenyl]-4-methyl-2H-chromen-7-ol] | – | – | –
0.3 nM | 6 nM | 2.2 nM | 7580 ng·h/mL | 343 ng/mL | 4 h | 26 h | 9800 ng·h/mL | about 4.2 fold | about 2.9 fold | CC1=C(c2cc(F)cc(F)c2)[C@H](c2ccc(/C=C/CN3CC(CF)C3)cc2)Oc2cc(O)ccc21 [Formula Ia, (2S)-3-(3,5-difluorophenyl)-2-[4-[(E)-3-[3-(fluoromethyl)azetidin-1-yl]prop-1-enyl]phenyl]-4-methyl-2H-chromen-7-ol] | about 233 times | 56% | significant reduction in the tumor growth
